Measured values published in patent publication US11053204B2, “Pyrimidinyloxy benzene derivatives as herbicides” (FMC Corporation, priority 2015, dated 2021).

How the values were obtained:
Assay type in all cases: in vivo
[1] = tested on: sedge, umbrella (small-flower umbrella sedge, Cyperus difformis); experiment: Test B flooded paddy test, plant response rating; conditions: 250 g ai/ha; Flood; scale of 0 to 100 where 0 is no effect and 100 is complete control; 13 to 15 days
How it was run: (§1)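 Flooded 3 cm over soil; compound into paddy water; depth kept constant. Greenhouse 13–15 d.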

[2] = tested on: barnyardgrass (Echinochloa crus-galli); experiment: Test B flooded paddy test, plant response rating; conditions: 250 g ai/ha; Flood; scale of 0 to 100 where 0 is no effect and 100 is complete control; 13 to 15 days
How it was run: as §1

rice (Oryza sativa) = experiment: Test B flooded paddy test, plant response rating; conditions: 250 g ai/ha; Flood; scale of 0 to 100 where 0 is no effect and 100 is complete control; 13 to 15 days
How it was run: as §1

[3] = tested on: ducksalad (Heteranthera limosa); experiment: Test B flooded paddy test, plant response rating; conditions: 250 g ai/ha; Flood; scale of 0 to 100 where 0 is no effect and 100 is complete control; 13 to 15 days
How it was run: as §1

[4] = tested on: pigweed (Amaranthus retroflexus); experiment: Test A preemergence, visual injury rating; conditions: for Plant response rating, Pigweed: 31 g ai/ha, 0 to 100 scale, 0 no effect, 100 complete control; for Pigweed plant response rating: 125 g ai/ha, 0 to 100 scale (0 no effect, 100 complete control)
How it was run: (§2)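 Compounds in non-phytotoxic solvent with surfactant applied as soil spray preemergence, or postemergence to plants 2-10 cm at one- to two-leaf stage, in loam/sand. After approximately 10 days in greenhouse, injury rated visually versus untreated controls, 0 (no effect) to 100 (complete control).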

[5] = tested on: Italian ryegrass (Lolium multiflorum); experiment: Test A preemergence, visual injury rating; conditions: for Plant response rating, Ryegrass, Italian: 31 g ai/ha, 0 to 100 scale, 0 no effect, 100 complete control; for Ryegrass, Italian plant response rating: 125 g ai/ha, 0 to 100 scale (0 no effect, 100 complete control)
How it was run: as §2

[6] = tested on: barnyardgrass (Echinochloa crus-galli); experiment: Test A preemergence, visual injury rating; conditions: for Plant response rating, Barnyardgrass: 31 g ai/ha, 0 to 100 scale, 0 no effect, 100 complete control; for Barnyardgrass plant response rating: 125 g ai/ha, 0 to 100 scale (0 no effect, 100 complete control)
How it was run: as §2

[7] = tested on: ragweed (common ragweed, Ambrosia elatior); experiment: Test A preemergence, visual injury rating; conditions: for Plant response rating, Ragweed: 31 g ai/ha, 0 to 100 scale, 0 no effect, 100 complete control; for Ragweed plant response rating: 125 g ai/ha, 0 to 100 scale (0 no effect, 100 complete control)
How it was run: as §2

[8] = tested on: giant foxtail (Setaria faberii); experiment: Test A preemergence, visual injury rating; conditions: for Plant response rating, Foxtail, Giant: 31 g ai/ha, 0 to 100 scale, 0 no effect, 100 complete control; for Foxtail, Giant plant response rating: 125 g ai/ha, 0 to 100 scale (0 no effect, 100 complete control)
How it was run: as §2

kochia (Kochia scoparia) [9] = experiment: Test A preemergence, visual injury rating; conditions: for Plant response rating, Kochia: 31 g ai/ha, 0 to 100 scale, 0 no effect, 100 complete control; for Kochia plant response rating: 125 g ai/ha, 0 to 100 scale (0 no effect, 100 complete control)
How it was run: as §2

[10] = tested on: pigweed (Amaranthus retroflexus); experiment: Test A postemergence, visual injury rating; conditions: 0 is no effect, 100 is complete control; for Pigweed plant response rating: 0 to 100 scale, approximately 10 days
How it was run: as §2

corn (Zea mays) = experiment: Test A postemergence, visual injury rating; conditions: 0 is no effect, 100 is complete control; for Corn plant response rating: 31 g ai/ha, 0 to 100 scale, approximately 10 days; for Corn plant response rating (0 to 100 scale): 125 g ai/ha
How it was run: as §2

[11] = tested on: galium (catchweed bedstraw, Galium aparine); experiment: Test A postemergence, visual injury rating; conditions: 0 is no effect, 100 is complete control; for Galium plant response rating: 31 g ai/ha, 0 to 100 scale, approximately 10 days; for Galium plant response rating (0 to 100 scale): 125 g ai/ha
How it was run: as §2

[12] = tested on: blackgrass (Alopecurus myosuroides); experiment: Test A postemergence, visual injury rating; conditions: 0 is no effect, 100 is complete control; for Blackgrass plant response rating: 31 g ai/ha, 0 to 100 scale, approximately 10 days; for Blackgrass plant response rating (0 to 100 scale): 125 g ai/ha
How it was run: as §2

[13] = tested on: wheat (Triticum aestivum); experiment: Test A postemergence, visual injury rating; conditions: 0 is no effect, 100 is complete control; for Wheat plant response rating: 0 to 100 scale, approximately 10 days
How it was run: as §2

[14] = tested on: Italian ryegrass (Lolium multiflorum); experiment: Test A postemergence, visual injury rating; conditions: 0 is no effect, 100 is complete control; for Ryegrass, Italian plant response rating: 0 to 100 scale, approximately 10 days
How it was run: as §2

[15] = tested on: barnyardgrass (Echinochloa crus-galli); experiment: Test A postemergence, visual injury rating; conditions: 0 is no effect, 100 is complete control; for Barnyardgrass plant response rating: 31 g ai/ha, 0 to 100 scale, approximately 10 days; for Barnyardgrass plant response rating (0 to 100 scale): 125 g ai/ha
How it was run: as §2

[16] = tested on: ragweed (common ragweed, Ambrosia elatior); experiment: Test A postemergence, visual injury rating; conditions: 0 is no effect, 100 is complete control; for Ragweed plant response rating: 0 to 100 scale, approximately 10 days
How it was run: as §2

[17] = tested on: giant foxtail (Setaria faberii); experiment: Test A postemergence, visual injury rating; conditions: 0 is no effect, 100 is complete control; for Foxtail, Giant plant response rating: 31 g ai/ha, 0 to 100 scale, approximately 10 days; for Foxtail, Giant plant response rating (0 to 100 scale): 125 g ai/ha
How it was run: as §2

kochia (Kochia scoparia) [18] = experiment: Test A postemergence, visual injury rating; conditions: 0 is no effect, 100 is complete control; for Kochia plant response rating: 0 to 100 scale, approximately 10 days
How it was run: as §2

CCCC(=O)c1c(C#N)cccc1Oc1ncc(Cl)cn1 [Compound 67] was tested, and the “Plant response rating, Sedge, Umbrella” value [1] was 0, the “Plant response rating, Barnyardgrass” value [2] was 0 and the “Plant response rating, Rice” value (rice (Oryza sativa)) was 0. For the same molecule, the “Plant response rating, Ducksalad” value [3] was 0, the “Plant response rating, Pigweed” value [4] was 0 and the “Pigweed plant response rating” value [4] was 0. The “Plant response rating, Ryegrass, Italian” value [5] was 0, the “Ryegrass, Italian plant response rating” value [5] was 0 and the “Plant response rating, Barnyardgrass” value [6] was 0. For the same molecule, the “Barnyardgrass plant response rating” value [6] was 0, the “Plant response rating, Ragweed” value [7] was 0 and the “Ragweed plant response rating” value [7] was 0. The “Plant response rating, Foxtail, Giant” value [8] was 0, the “Foxtail, Giant plant response rating” value [8] was 0 and the “Plant response rating, Kochia” value (kochia (Kochia scoparia) [9]) was 0. The “Kochia plant response rating” value (kochia (Kochia scoparia) [9]) was 0, the “Pigweed plant response rating” value ([10]; 31 g ai/ha) was 0 and the “Pigweed plant response rating (0 to 100 scale)” value ([10]; 125 g ai/ha) was 0. For the same molecule, the “Corn plant response rating” value (corn (Zea mays)) was 0, the “Corn plant response rating (0 to 100 scale)” value (corn (Zea mays)) was 0 and the “Galium plant response rating” value [11] was 0. For the same molecule, the “Galium plant response rating (0 to 100 scale)” value [11] was 0, the “Blackgrass plant response rating” value [12] was 0 and the “Blackgrass plant response rating (0 to 100 scale)” value [12] was 0. The “Wheat plant response rating” value ([13]; 31 g ai/ha) was 0, the “Wheat plant response rating (0 to 100 scale)” value ([13]; 125 g ai/ha) was 0 and the “Ryegrass, Italian plant response rating” value ([14]; 31 g ai/ha) was 0. The “Ryegrass, Italian plant response rating (0 to 100 scale)” value ([14]; 125 g ai/ha) was 0, the “Barnyardgrass plant response rating” value [15] was 0 and the “Barnyardgrass plant response rating (0 to 100 scale)” value [15] was 0. The “Ragweed plant response rating” value ([16]; 31 g ai/ha) was 0, the “Ragweed plant response rating (0 to 100 scale)” value ([16]; 125 g ai/ha) was 0 and the “Foxtail, Giant plant response rating” value [17] was 0. The “Foxtail, Giant plant response rating (0 to 100 scale)” value (from here on “Foxtail … (0 to 100 scale)”) [17] was 0, the “Kochia plant response rating” value (kochia (Kochia scoparia) [18]; 31 g ai/ha) was 0 and the “Kochia plant response rating (0 to 100 scale)” value (kochia (Kochia scoparia) [18]; 125 g ai/ha) was 0.
In the case of CCCCC(=O)c1c(C#N)cccc1Oc1ncc(Cl)cn1 [Compound 68], the “Plant response rating, Sedge, Umbrella” value [1] is reported as 0, the “Plant response rating, Barnyardgrass” value [2] is reported as 0 and the “Plant response rating, Rice” value (rice (Oryza sativa)) is reported as 0. The “Plant response rating, Ducksalad” value [3] was 0, the “Plant response rating, Pigweed” value [4] was 20 and the “Pigweed plant response rating” value [4] was 80. For the same molecule, the “Plant response rating, Ryegrass, Italian” value [5] was 0, the “Ryegrass, Italian plant response rating” value [5] was 0 and the “Plant response rating, Barnyardgrass” value [6] was 10. For the same molecule, the “Barnyardgrass plant response rating” value [6] was 70, the “Plant response rating, Ragweed” value [7] was 0 and the “Ragweed plant response rating” value [7] was 0. The “Plant response rating, Foxtail, Giant” value [8] was 10, the “Foxtail, Giant plant response rating” value [8] was 80 and the “Plant response rating, Kochia” value (kochia (Kochia scoparia) [9]) was 0. For the same molecule, the “Kochia plant response rating” value (kochia (Kochia scoparia) [9]) was 30, the “Pigweed plant response rating” value ([10]; 31 g ai/ha) was 20 and the “Pigweed plant response rating (0 to 100 scale)” value ([10]; 125 g ai/ha) was 90. The “Corn plant response rating” value (corn (Zea mays)) was 10, the “Corn plant response rating (0 to 100 scale)” value (corn (Zea mays)) was 20 and the “Galium plant response rating” value [11] was 20. For the same molecule, the “Galium plant response rating (0 to 100 scale)” value [11] was 60, the “Blackgrass plant response rating” value [12] was 10 and the “Blackgrass plant response rating (0 to 100 scale)” value [12] was 30. The “Wheat plant response rating” value ([13]; 31 g ai/ha) was 0, the “Wheat plant response rating (0 to 100 scale)” value ([13]; 125 g ai/ha) was 0 and the “Ryegrass, Italian plant response rating” value ([14]; 31 g ai/ha) was 0. For the same molecule, the “Ryegrass, Italian plant response rating (0 to 100 scale)” value ([14]; 125 g ai/ha) was 0, the “Barnyardgrass plant response rating” value [15] was 10 and the “Barnyardgrass plant response rating (0 to 100 scale)” value [15] was 30. For the same molecule, the “Ragweed plant response rating” value ([16]; 31 g ai/ha) was 0, the “Ragweed plant response rating (0 to 100 scale)” value ([16]; 125 g ai/ha) was 20 and the “Foxtail, Giant plant response rating” value [17] was 20. The “Foxtail … (0 to 100 scale)” value [17] was 30, the “Kochia plant response rating” value (kochia (Kochia scoparia) [18]; 31 g ai/ha) was 20 and the “Kochia plant response rating (0 to 100 scale)” value (kochia (Kochia scoparia) [18]; 125 g ai/ha) was 40.
CC(=NOC(C)C)c1c(C#N)cccc1Oc1ncc(Cl)cn1 [Compound 69] was tested, and the “Plant response rating, Sedge, Umbrella” value [1] was 80, the “Plant response rating, Barnyardgrass” value [2] was 0 and the “Plant response rating, Rice” value (rice (Oryza sativa)) was 20. The “Plant response rating, Ducksalad” value [3] was 75, the “Plant response rating, Pigweed” value [4] was 40 and the “Pigweed plant response rating” value [4] was 100. The “Plant response rating, Ryegrass, Italian” value [5] was 0, the “Ryegrass, Italian plant response rating” value [5] was 0 and the “Plant response rating, Barnyardgrass” value [6] was 70. For the same molecule, the “Barnyardgrass plant response rating” value [6] was 90, the “Plant response rating, Ragweed” value [7] was 0 and the “Ragweed plant response rating” value [7] was 0. The “Plant response rating, Foxtail, Giant” value [8] was 40, the “Foxtail, Giant plant response rating” value [8] was 70 and the “Plant response rating, Kochia” value (kochia (Kochia scoparia) [9]) was 0. For the same molecule, the “Kochia plant response rating” value (kochia (Kochia scoparia) [9]) was 30, the “Pigweed plant response rating” value ([10]; 31 g ai/ha) was 40 and the “Pigweed plant response rating” value ([10]; 125 g ai/ha) was 80. For the same molecule, the “Corn plant response rating” value (corn (Zea mays)) was 0, the “Corn plant response rating (0 to 100 scale)” value (corn (Zea mays)) was 20 and the “Galium plant response rating” value [11] was 40. For the same molecule, the “Galium plant response rating (0 to 100 scale)” value [11] was 60, the “Blackgrass plant response rating” value [12] was 10 and the “Blackgrass plant response rating (0 to 100 scale)” value [12] was 30. The “Wheat plant response rating” value ([13]; 31 g ai/ha) was 0, the “Wheat plant response rating” value ([13]; 125 g ai/ha) was 0 and the “Ryegrass, Italian plant response rating” value ([14]; 31 g ai/ha) was 0. The “Ryegrass, Italian plant response rating” value ([14]; 125 g ai/ha) was 0, the “Barnyardgrass plant response rating” value [15] was 10 and the “Barnyardgrass plant response rating (0 to 100 scale)” value [15] was 70. The “Ragweed plant response rating” value ([16]; 31 g ai/ha) was 0, the “Ragweed plant response rating” value ([16]; 125 g ai/ha) was 0 and the “Foxtail, Giant plant response rating” value [17] was 20. The “Foxtail … (0 to 100 scale)” value [17] was 30, the “Kochia plant response rating” value (kochia (Kochia scoparia) [18]; 31 g ai/ha) was 20 and the “Kochia plant response rating” value (kochia (Kochia scoparia) [18]; 125 g ai/ha) was 40.
